Measurements from patent US10131657B2, “Bromodomain inhibitors” (AbbVie Inc., priority 2013, dated 2018).
pEC50: −log10 of the molar value.

Each molecule was assayed on breast cancer cell line MX-1 (assay: MX-1 cell line proliferation assay, Method A). Settings: Homo sapiens, MX1; MX-1 cells, 96-well, 72 hours, Cell Titer Glo; read-out: Cellular proliferation: EC50 Method A.
Type: cell-based
Description: The impact of compounds of the Examples on cancer cell proliferation was determined using the breast cancer cell line MX-1 (ATCC) in a 3-day proliferation assay and the data are reported in Table 1.
MX-1 cells were maintained in RPMI 1640 medium (Sigma) supplemented with 10% FBS at 37° C. and an atmosphere of 5% CO2. For compound testing, MX-1 cells were plated in 96-well black bottom plates at a density of 5000 cells/well in 90 μL of culture media and incubated at 370 overnight to allow cell adhesion and spreading. Compound dilution series were prepared in DMSO via a 3-fold serial dilution from 3 mM to 0.1 μM. The DMSO dilution series were then diluted 1:100 in phosphate buffered saline, and 10 μL of the resulted solution were added to the appropriate wells of the MX-1 cell plate. The final compound concentrations in the wells were 3, 1, 0.3, 0.1, 0.03, 0.01, 0.003, 0.001, 0.0003 and 0.0001 μM.
Luminescence readings from the Cell Titer Glo assay were normalized to the DMSO treated cells and analyzed using the GraphPad Prism software with sigmoidal curve fitting to obtain ECs50s. The minimum significant ratio (MSR) was determined to evaluate assay reproducibility (Eastwood et al., (2006) J Biomol Screen, 11: 253-261).
With `COc1cccc(CNc2cccc(Oc3ccc(S(C)(=O)=O)cc3-c3cn(C)c(=O)c4[nH]ccc34)c2)c1` [Example 66, 4-[2-{3-[(3-methoxybenzyl)amino]phenoxy}-5-(methylsulfonyl)phenyl]-6-methyl-1,6-dihydro-7H-pyrrolo[2,3-c]pyridin-7-one] the pEC50 was 7.26. `CN(C)c1cccc(CNc2cccc(Oc3ccc(S(C)(=O)=O)cc3-c3cn(C)c(=O)c4[nH]ccc34)c2)c1` [Example 75, 4-[2-(3-{[3-(dimethylamino)benzyl]amino}phenoxy)-5-(methylsulfonyl)phenyl]-6-methyl-1,6-dihydro-7H-pyrrolo[2,3-c]pyridin-7-one] gave a pEC50 of 6.95. `COCCN[C@H]1CC[C@H](Nc2ccc(S(C)(=O)=O)cc2-c2cn(C)c(=O)c3[nH]ccc23)CC1` [Example 111, 4-[2-({trans-4-[(2-methoxyethyl)amino]cyclohexyl}amino)-5-(methylsulfonyl)phenyl]-6-methyl-1,6-dihydro-7H-pyrrolo[2,3-c]pyridin-7-one] showed a pEC50 of 6.81. `Cn1cc(-c2cc(S(C)(=O)=O)ccc2N[C@H]2CC[C@H](NCc3ccc4ccccc4c3)CC2)c2cc[nH]c2c1=O` [Example 110, 6-methyl-4-[5-(methylsulfonyl)-2-({trans-4-[(naphthalen-2-ylmethyl)amino]cyclohexyl}amino)phenyl]-1,6-dihydro-7H-pyrrolo[2,3-c]pyridin-7-one] was tested, and the pEC50 was 7.98. `CC(=O)Nc1ccc(CN2CCC(Nc3ccc(S(C)(=O)=O)cc3-c3cn(C)c(=O)c4[nH]ccc34)CC2)cc1` [Example 87, N-{4-[(4-{[2-(6-methyl-7-oxo-6,7-dihydro-1H-pyrrolo[2,3-c]pyridin-4-yl)-4-(methylsulfonyl)phenyl]amino}piperidin-1-yl)methyl]phenyl}acetamide] gave a pEC50 of 6.49. In the case of `Cc1cccc(S(=O)(=O)Nc2cccc(Oc3ccc(S(C)(=O)=O)cc3-c3cn(C)c(=O)c4[nH]ccc34)c2)c1` [Example 50, 3-methyl-N-{3-[2-(6-methyl-7-oxo-6,7-dihydro-1H-pyrrolo[2,3-c]pyridin-4-yl)-4-(methylsulfonyl)phenoxy]phenyl}benzenesulfonamide], the pEC50 was 7.39. `CCNC(=O)c1cc2c(-c3cc(S(=O)(=O)CC)ccc3Oc3c(C)cccc3NCC3CC3)cn(C)c(=O)c2[nH]1` [Example 119, 4-[2-{2-[(cyclopropylmethyl)amino]-6-methylphenoxy}-5-(ethylsulfonyl)phenyl]-N-ethyl-6-methyl-7-oxo-6,7-dihydro-1H-pyrrolo[2,3-c]pyridine-2-carboxamide] gave a pEC50 of 5.82. Molecule `Cn1cc(-c2cc(S(C)(=O)=O)ccc2Oc2cccc(NCc3cccc(C#N)c3)c2)c2cc[nH]c2c1=O` [Example 60, 3-[({3-[2-(6-methyl-7-oxo-6,7-dihydro-1H-pyrrolo[2,3-c]pyridin-4-yl)-4-(methylsulfonyl)phenoxy]phenyl}amino)methyl]benzonitrile] has a pEC50 of 7.19. `Cn1cc(-c2cc(S(C)(=O)=O)ccc2N[C@H]2CC[C@H](NCc3cccs3)CC2)c2cc[nH]c2c1=O` [Example 107, 6-methyl-4-[5-(methylsulfonyl)-2-({trans-4-[(thiophen-2-ylmethyl)amino]cyclohexyl}amino)phenyl]-1,6-dihydro-7H-pyrrolo[2,3-c]pyridin-7-one] was tested, and the pEC50 was 7.63. In the case of `Cn1cc(-c2cc(S(C)(=O)=O)ccc2Oc2cccc(C(=O)N3CCN(CCn4ccnc4)CC3)c2)c2cc[nH]c2c1=O` [Example 23, 4-{2-[3-({4-[2-(1H-imidazol-1-yl)ethyl]piperazin-1-yl}carbonyl)phenoxy]-5-(methylsulfonyl)phenyl}-6-methyl-1,6-dihydro-7H-pyrrolo[2,3-c]pyridin-7-one], the pEC50 was < 6.00. In the case of `Cn1cc(-c2cc(S(C)(=O)=O)ccc2Oc2cccc(NCc3ccccc3F)c2)c2cc[nH]c2c1=O` [Example 67, 4-[2-{3-[(2-fluorobenzyl)amino]phenoxy}-5-(methylsulfonyl)phenyl]-6-methyl-1,6-dihydro-7H-pyrrolo[2,3-c]pyridin-7-one], the pEC50 was 7.30.
